Assay results taken from US6986896B2, “Method of treating fungal conditions of the skin” (Bradley Pharmaceuticals, Inc., priority 2002, dated 2006).

System: Trychophyton rubrum
Assay: Percent kill rate of topical products inoculated with T. rubrum (residual microbial content by serial dilution)
Assay type: cell-based
Experimental: Various compositions, e.g. creams, lotions, and gels, containing urea as the sole active ingredient at various concentrations were tested against Trychophyton rubrum, a fungus typically implicated in Moccasin tinea pedis and onychomycosis, and compared to traditional antifungal compositions. A solution of the individual or combination products were inoculated with a known starting concentration of T. rubrum. These solutions were then retested at the specific time intervals to determine the residual microbial content.
The decrease in the residual microbial content calculated as a percentage of its initial starting concentration is the percent kill rate reported in the following table.

## NC(N)=O [urea]
  antifungal activity (conclusion from the kill rate tests): effective antifungal agent
